According to article PMC3949517 (Acta Crystallographica Section D: Biological Crystallography, 2014):
Where “and” joins values, the source holds several entries; their conditions need not be identical. Equal entries are not always repeated. Bridge positions count the residues as written; N and C are the ends. Ends that are not written are not given here. Peptide text beside a SMILES is read from it. * marks the point of attachment. Biotin = O=C1N[C@H]2[C@H](CS[C@H]2CCCCC(=O)*)N1

Key:
[1] = tested on: A17 reactibody; settings: cited from earlier work
[2] = tested on: A17κ reactibody (FabA17κ); type: biochemical, human
[3] = tested on: A17λ reactibody (FabA17λ); type: biochemical, human
[4] = tested on: A17κ reactibody; type: binding, human
[5] = tested on: A17λ reactibody; type: binding, human; settings: for Kd: read-out: Kd (BiaCore affinity constant)
[6] = tested on: scFvA17; type: binding, human
[7] = tested on: recombinant Fab reactibodies (FabA17κ, FabA17λ); type: binding, human
[8] = tested on: A17κ reactibody (FabA17κ); type: biochemical, human; remark: listed apart in the source
[9] = tested on: A17λ reactibody (FabA17λ); type: biochemical, human; remark: listed apart in the source
[10] = tested on: A17κ reactibody (FabA17κ); type: biochemical, human; remark: listed apart in the source
[11] = target: T1, pep54L, linear (reduced) synthetic peptide 54 (synthetic (phage library-derived), cysteine pairing not given here); assay: SPR; Biacore T200, SA sensor chip; biotinylated synthetic peptides immobilised, antibodies injected at a range of concentrations, 10 µl/min, 298 K; association and dissociation 300 s each; 1:1 binding model, affinity-analysis option; settings: both partners purified
T1 construct: also called pep54 linear form; source: synthetic peptide
T1 chain: GACPNPWGLLCGAAGAEK(Biotin)-NH2

[12] = target: T2, pep50L, linear (reduced) synthetic peptide 50 (synthetic (phage library-derived), cysteine pairing not given here); assay: as above; settings: both partners purified
T2 construct: also called pep50 linear form; source: synthetic peptide
T2 chain: GACRNPWGLTCGAAGAEK(Biotin)-NH2

CCOP(=O)(OCC)Oc1ccc([N+](=O)[O-])cc1 [paraoxon, O,O-Diethyl O-(4-nitrophenyl)phosphate]
reaction with A17 reactibody (in words) [1]: hydrolyzing
k2/KD, paraoxon [2]: 1.15 ± 0.52 M–1 min–1
k2/Kd, paraoxon ([2]; pH 7.4): 1.2 0.5 M ^1min^1
k2/KD, paraoxon [3]: 1.63 ± 0.65 M–1 min–1
k2/Kd, paraoxon ([3]; pH 7.4): 1.6 0.6 M ^1min^1

CC(C)C[C@@H]1NC(=O)CNC(=O)[C@H](Cc2c[nH]c3ccccc23)NC(=O)[C@@H]2CCCN2C(=O)[C@H](CC(N)=O)NC(=O)[C@H](CCCNC(=N)N)NC(=O)[C@@H](NC(=O)[C@H](C)NC(=O)CN)CSSC[C@@H](C(=O)NCC(=O)N[C@@H](C)C(=O)N[C@@H](C)C(=O)NCC(=O)N[C@@H](C)C(=O)N[C@@H](CCC(=O)O)C(=O)N[C@@H](CCCCNC(=O)CCCC[C@@H]2SC[C@@H]3NC(=O)N[C@@H]32)C(N)=O)NC(=O)[C@H]([C@@H](C)O)NC1=O [50C] (H-GACRNPWGLTCGAAGAEK(Biotin)-NH2; disulfide 3-11)
affinity (in words) [4]: high affinity
binding activity of A17κ compared with A17λ (in words) [4]: A17κ was more active in binding either the linear or the cyclic form of pep50
Kd ([4]; read-out: Kd (BiaCore affinity constant)): 0.9 µM
affinity (in words) [5]: high affinity

CRNPWGLTC (disulfide 1-9 (inferred)) [pep50]
binding to scFvA17 (in words) [6]: specifically bind
effect of phosphonylation of scFv on ELISA signals (in words) [6]: significantly enhanced the ELISA signals
binding by recombinant Fab reactibodies (in words) [7]: capable of binding
effect of phosphonylation of the Fabs on level of binding (in words) [7]: reduced the level of binding

p-nitrophenyl 8-methyl-8-azabicyclo[3.2.1]octylphenylphosphonate [phosphonate X]
Ea (activation-energy parameter), phosphonate X [8]: 12.5 1.3 kcalmol^1
Kd ([8]; pH 7.4): 120 µM and 150 µM and 80 µM and 130 µM
k2, phosphonate X ([8]; pH 7.4): 0.24 0.03 min^1
reaction with A17 reactibody (in words) [1]: irreversibly binding
Ea (activation-energy parameter), phosphonate X [9]: 11.4 0.5 kcalmol^1
Kd ([9]; pH 7.4): 110 µM and 145 µM and 170 µM and 130 µM and 180 µM
k2, phosphonate X ([9]; pH 7.4): 0.28 0.02 min^1
rate of induced-fit stage, A17κ vs A17λ (in words) [10]: induced-fit stage is more rapid in the κ variant

CC(C)C[C@H](NC(=O)CNC(=O)[C@H](Cc1c[nH]c2ccccc12)NC(=O)[C@@H]1CCCN1C(=O)[C@H](CC(N)=O)NC(=O)[C@@H]1CCCN1C(=O)[C@H](CS)NC(=O)[C@H](C)NC(=O)CN)C(=O)N[C@@H](CC(C)C)C(=O)N[C@@H](CS)C(=O)NCC(=O)N[C@@H](C)C(=O)N[C@@H](C)C(=O)NCC(=O)N[C@@H](C)C(=O)N[C@@H](CCC(=O)O)C(=O)N[C@@H](CCCCNC(=O)CCCC[C@@H]1SC[C@@H]2NC(=O)N[C@@H]21)C(N)=O [54L] (H-GACPNPWGLLCGAAGAEK(Biotin)-NH2)
Kd [5]: 18 µM

CC(C)C[C@H](NC(=O)CNC(=O)[C@H](Cc1c[nH]c2ccccc12)NC(=O)[C@@H]1CCCN1C(=O)[C@H](CC(N)=O)NC(=O)[C@H](CCCNC(=N)N)NC(=O)[C@H](CS)NC(=O)[C@H](C)NC(=O)CN)C(=O)N[C@H](C(=O)N[C@@H](CS)C(=O)NCC(=O)N[C@@H](C)C(=O)N[C@@H](C)C(=O)NCC(=O)N[C@@H](C)C(=O)N[C@@H](CCC(=O)O)C(=O)N[C@@H](CCCCNC(=O)CCCC[C@@H]1SC[C@@H]2NC(=O)N[C@@H]21)C(N)=O)[C@@H](C)O [50L] (H-GACRNPWGLTCGAAGAEK(Biotin)-NH2)
affinity (in words) [4]: high affinity
binding activity of A17κ compared with A17λ (in words) [4]: A17κ was more active in binding either the linear or the cyclic form of pep50
affinity (in words) [5]: high affinity
Kd [5]: 2.3 µM

CC(C)C[C@@H]1NC(=O)CNC(=O)[C@H](Cc2c[nH]c3ccccc23)NC(=O)[C@@H]2CCCN2C(=O)[C@H](CC(N)=O)NC(=O)[C@@H]2CCCN2C(=O)[C@@H](NC(=O)[C@H](C)NC(=O)CN)CSSC[C@@H](C(=O)NCC(=O)N[C@@H](C)C(=O)N[C@@H](C)C(=O)NCC(=O)N[C@@H](C)C(=O)N[C@@H](CCC(=O)O)C(=O)N[C@@H](CCCCNC(=O)CCCC[C@@H]2SC[C@@H]3NC(=O)N[C@@H]32)C(N)=O)NC(=O)[C@H](CC(C)C)NC1=O [54C] (H-GACPNPWGLLCGAAGAEK(Biotin)-NH2; disulfide 3-11)
binding activity of A17λ compared with A17κ (in words) [5]: A17λ was more active than A17κ

CPNPWGLLC (disulfide 1-9 (inferred)) [pep54]
binding to scFvA17 (in words) [6]: specifically bind
effect of phosphonylation of scFv on ELISA signals (in words) [6]: significantly enhanced the ELISA signals
binding by recombinant Fab reactibodies (in words) [7]: capable of binding
effect of phosphonylation of the Fabs on level of binding (in words) [7]: reduced the level of binding

B1: FabA17λ (Fab of the A17 reactibody with the λ light-chain constant domain) (Fab, V domains shown)
VH: QVQLQESGPGLVKPSETLSLTCAVSGYSISSGYYWGWIRQPPGKGLEWIGSIYHSGSTYYNPSLKSRVTISVDTSKNQFSLKLSSVTAADTAVYYCAGLTQSSHNDANWGQGTLVTVSS
VL: QSVLTQPPSVSAAPGQKVTISCSGSSSNIGNNYVSWYQQLPGTAPKLLIYDNNKRPSGIPDRFSGSKSGTSATLGITGLQTGDEADYYCGTWDSSLNPVFGGGTKLTVL
notes: as the heavy chain of m1 (HCH: A17 VH, human CH1, hinge region); natural-type λ light chain: A17 VL (identical to the VL of m1) with the J2 segment and the constant region of human λ2 light chain; also called FabA17 λ variant; source: Pichia pastoris GS115, culture medium, purified (Talon, Mono Q, Superdex 75)
Kd [11]: 18 µM
Kd [12]: 2.3 µM
